# Source: ChEMBL document CHEMBL1201862, “PubChem BioAssay data set” (2004)
# Active and inactive are the calls of the source.
# Columns and labels:
# [1] = target: Voltage-dependent T-type calcium channel subunit alpha-1H (Homo sapiens, UniProt O95180); format: functional;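 also: channel activity triggered by adding a high calcium stimulation buffer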
# [2] = target: T1, Polyadenylate-binding protein 1 (Homo sapiens, UniProt P11940); test: MLLE binding blockers, Cy5 peptide tracer – biochemical, fluorescence polarization, Cy5-PAM2 peptide, secondary, miRNA deadenylation inhibitor project, dose response (AID 602260); format: functional; conditions: read-out: IC50_Mean
# [3] = target: T1, Polyadenylate-binding protein 1; test: MLLE domain peptide-binding blockers, IC50 – biochemical, fluorescence polarization, FITC-PAM2 peptide, dose response (AID 602259); format: functional; conditions: read-out: IC50_Mean
# Aminopeptidase N = target: T2, Aminopeptidase N (Plasmodium falciparum FcB1/Columbia, UniProt O96935); test: malaria alanyl aminopeptidase activity blockers – biochemical, fluorogenic H-Leu-NHMec substrate, 1536-well (AID 1445); parameters: species or system Plasmodium falciparum 3D7, 3D7
# T2 sequence (O96935 whole entry): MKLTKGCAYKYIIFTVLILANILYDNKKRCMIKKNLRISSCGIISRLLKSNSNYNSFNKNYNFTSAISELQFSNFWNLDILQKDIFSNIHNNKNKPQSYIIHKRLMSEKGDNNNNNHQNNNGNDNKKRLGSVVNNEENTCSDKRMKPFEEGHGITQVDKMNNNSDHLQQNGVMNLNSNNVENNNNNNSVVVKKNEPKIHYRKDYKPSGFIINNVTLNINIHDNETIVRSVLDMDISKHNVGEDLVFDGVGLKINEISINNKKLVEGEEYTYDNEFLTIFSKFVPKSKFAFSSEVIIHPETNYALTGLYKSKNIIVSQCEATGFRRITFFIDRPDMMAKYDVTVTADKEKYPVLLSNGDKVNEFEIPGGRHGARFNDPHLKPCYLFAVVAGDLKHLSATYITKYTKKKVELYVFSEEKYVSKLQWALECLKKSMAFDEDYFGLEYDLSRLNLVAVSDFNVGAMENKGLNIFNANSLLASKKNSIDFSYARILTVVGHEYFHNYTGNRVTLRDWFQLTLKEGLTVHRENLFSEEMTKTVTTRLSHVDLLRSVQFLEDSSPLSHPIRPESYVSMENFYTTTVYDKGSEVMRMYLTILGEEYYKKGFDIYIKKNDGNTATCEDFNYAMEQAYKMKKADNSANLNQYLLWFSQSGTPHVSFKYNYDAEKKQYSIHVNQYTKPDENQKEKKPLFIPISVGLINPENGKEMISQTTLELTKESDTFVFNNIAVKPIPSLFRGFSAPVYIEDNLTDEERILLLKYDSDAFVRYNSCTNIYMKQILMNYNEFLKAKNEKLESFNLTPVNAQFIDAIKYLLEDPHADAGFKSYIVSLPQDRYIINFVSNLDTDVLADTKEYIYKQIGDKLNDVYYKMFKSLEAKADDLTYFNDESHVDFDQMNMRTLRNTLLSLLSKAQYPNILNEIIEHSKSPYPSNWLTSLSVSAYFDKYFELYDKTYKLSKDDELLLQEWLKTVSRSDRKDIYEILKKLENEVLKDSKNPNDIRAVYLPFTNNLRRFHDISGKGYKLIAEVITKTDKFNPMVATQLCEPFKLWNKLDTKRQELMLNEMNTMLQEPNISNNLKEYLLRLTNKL
# [4] = target: T3, Endoribonuclease toxin MazF (Escherichia coli K-12, UniProt P0AE70); test: activation of MazEF endoribonuclease cleavage – biochemical, fluorescence, single-stranded RNA substrate, uHTS hits, dose response (AID 588481); format: functional
# T3 sequence (P0AE70 whole entry): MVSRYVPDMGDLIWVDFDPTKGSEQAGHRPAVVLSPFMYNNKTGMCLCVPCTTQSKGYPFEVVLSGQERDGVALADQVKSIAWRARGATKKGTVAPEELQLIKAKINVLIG
# [5] = target: T3, Endoribonuclease toxin MazF; test: substrate-only fluorescence increase artefacts – biochemical, single-stranded RNase substrate, counter-screen for MazEF activator project, dose response (AID 588502); format: functional
# Fatty acid synthase [6] = target: T4, Fatty acid synthase (Homo sapiens, UniProt P49327); test: inhibition of human FAS-TE enzyme activity – biochemical, endpoint fluorescence intensity, uHTS hits, dose response (AID 624327); format: functional;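 also: fluorescence from hydrolysis of an O-methyl fluorescein acyl ester substrate by the enzyme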
# Fatty acid synthase [7] = target: T4, Fatty acid synthase; test: inhibition of human FAS-TE enzyme activity – biochemical, kinetic fluorescence intensity, dose response (AID 624326); format: functional;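 also: rate of fluorescence rise from hydrolysis of a fluorogenic O-methyl fluorescein ester substrate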
# Estrogen receptor = target: T5, Estrogen receptor (Homo sapiens, UniProt P03372);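 also: potency for inhibiting coactivator peptide recruitment to the receptor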
# T5 sequence (P03372 whole entry): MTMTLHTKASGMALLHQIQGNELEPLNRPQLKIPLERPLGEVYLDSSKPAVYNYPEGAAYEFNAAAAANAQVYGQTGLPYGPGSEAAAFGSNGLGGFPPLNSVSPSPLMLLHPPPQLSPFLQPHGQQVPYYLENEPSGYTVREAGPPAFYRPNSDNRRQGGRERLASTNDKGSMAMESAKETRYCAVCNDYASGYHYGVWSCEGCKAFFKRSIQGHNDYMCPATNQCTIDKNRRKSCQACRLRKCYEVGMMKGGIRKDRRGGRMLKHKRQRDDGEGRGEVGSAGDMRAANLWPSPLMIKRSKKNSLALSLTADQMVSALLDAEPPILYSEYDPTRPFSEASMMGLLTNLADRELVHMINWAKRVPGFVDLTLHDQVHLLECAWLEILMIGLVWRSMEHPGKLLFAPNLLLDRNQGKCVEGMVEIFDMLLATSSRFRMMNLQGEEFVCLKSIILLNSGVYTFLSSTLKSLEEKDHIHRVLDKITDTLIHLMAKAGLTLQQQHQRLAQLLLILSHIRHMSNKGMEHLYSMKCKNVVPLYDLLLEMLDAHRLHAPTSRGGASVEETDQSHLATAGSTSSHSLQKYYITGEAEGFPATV
# [8] = microbe, parasite or virus in culture; format: functional; conditions: Mycobacterium tuberculosis
# [9] = target: DNA dC->dU-editing enzyme APOBEC-3G (Homo sapiens, UniProt Q9HC16); test: Dose Response confirmation of small molecule APOBEC3G DNA Deaminase Inhibitors via a fluorescence-based single-stranded DNA deaminase assay. [Related pubchem assays (depositor defined):AID493012, AID493028]; format: functional
# [10] = target: DNA dC->dU-editing enzyme APOBEC-3A (Homo sapiens, UniProt P31941); test: A3A deaminase inhibition for selectivity – biochemical, dose response (AID 504722); format: functional
# [11] = viability of HCT116 lacking mutant beta-catenin – cell-based, human colon tumor, dose response (AID 1045); format: functional;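 also: HCT116 colon tumor cells with beta catenin knocked out; cells exposed to compound for 60 hours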
# [12] = viability of PTEN-deleted HCT116 cells – cell-based, HCT116 PTEN knockout, dose response (AID 1047); format: functional;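 also: HCT116 colon tumor cells with PTEN knocked out; cells exposed to compound for 60 hours before readout; potency for loss of cell viability measured by luminescence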
# Leucine aminopeptidase = target: T6, Leucine aminopeptidase (Plasmodium falciparum 3D7, UniProt Q8IL11); test: P. falciparum M17LAP inhibitors, primary screen, biochemical, fluorogenic H-Leu-NHMec substrate, 1536-well (AID 1619); format: functional
# T6 sequence (Q8IL11 whole entry): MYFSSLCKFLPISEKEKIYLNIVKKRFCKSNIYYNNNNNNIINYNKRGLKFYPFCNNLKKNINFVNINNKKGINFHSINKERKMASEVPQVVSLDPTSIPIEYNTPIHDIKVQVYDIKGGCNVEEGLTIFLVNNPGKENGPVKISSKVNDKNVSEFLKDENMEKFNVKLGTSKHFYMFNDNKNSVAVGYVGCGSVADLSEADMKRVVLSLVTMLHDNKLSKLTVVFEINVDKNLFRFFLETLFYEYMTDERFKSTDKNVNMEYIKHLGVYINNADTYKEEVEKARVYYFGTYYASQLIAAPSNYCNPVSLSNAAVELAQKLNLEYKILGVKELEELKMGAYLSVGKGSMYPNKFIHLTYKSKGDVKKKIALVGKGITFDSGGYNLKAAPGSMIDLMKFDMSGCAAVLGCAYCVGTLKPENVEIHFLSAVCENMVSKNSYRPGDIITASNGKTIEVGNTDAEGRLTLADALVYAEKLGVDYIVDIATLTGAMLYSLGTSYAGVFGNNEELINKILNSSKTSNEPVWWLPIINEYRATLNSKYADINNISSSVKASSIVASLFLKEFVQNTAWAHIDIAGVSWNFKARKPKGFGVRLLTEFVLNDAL
# Chain of Voltage-dependent T-type calcium channel subunit alpha-1H (O95180 whole entry): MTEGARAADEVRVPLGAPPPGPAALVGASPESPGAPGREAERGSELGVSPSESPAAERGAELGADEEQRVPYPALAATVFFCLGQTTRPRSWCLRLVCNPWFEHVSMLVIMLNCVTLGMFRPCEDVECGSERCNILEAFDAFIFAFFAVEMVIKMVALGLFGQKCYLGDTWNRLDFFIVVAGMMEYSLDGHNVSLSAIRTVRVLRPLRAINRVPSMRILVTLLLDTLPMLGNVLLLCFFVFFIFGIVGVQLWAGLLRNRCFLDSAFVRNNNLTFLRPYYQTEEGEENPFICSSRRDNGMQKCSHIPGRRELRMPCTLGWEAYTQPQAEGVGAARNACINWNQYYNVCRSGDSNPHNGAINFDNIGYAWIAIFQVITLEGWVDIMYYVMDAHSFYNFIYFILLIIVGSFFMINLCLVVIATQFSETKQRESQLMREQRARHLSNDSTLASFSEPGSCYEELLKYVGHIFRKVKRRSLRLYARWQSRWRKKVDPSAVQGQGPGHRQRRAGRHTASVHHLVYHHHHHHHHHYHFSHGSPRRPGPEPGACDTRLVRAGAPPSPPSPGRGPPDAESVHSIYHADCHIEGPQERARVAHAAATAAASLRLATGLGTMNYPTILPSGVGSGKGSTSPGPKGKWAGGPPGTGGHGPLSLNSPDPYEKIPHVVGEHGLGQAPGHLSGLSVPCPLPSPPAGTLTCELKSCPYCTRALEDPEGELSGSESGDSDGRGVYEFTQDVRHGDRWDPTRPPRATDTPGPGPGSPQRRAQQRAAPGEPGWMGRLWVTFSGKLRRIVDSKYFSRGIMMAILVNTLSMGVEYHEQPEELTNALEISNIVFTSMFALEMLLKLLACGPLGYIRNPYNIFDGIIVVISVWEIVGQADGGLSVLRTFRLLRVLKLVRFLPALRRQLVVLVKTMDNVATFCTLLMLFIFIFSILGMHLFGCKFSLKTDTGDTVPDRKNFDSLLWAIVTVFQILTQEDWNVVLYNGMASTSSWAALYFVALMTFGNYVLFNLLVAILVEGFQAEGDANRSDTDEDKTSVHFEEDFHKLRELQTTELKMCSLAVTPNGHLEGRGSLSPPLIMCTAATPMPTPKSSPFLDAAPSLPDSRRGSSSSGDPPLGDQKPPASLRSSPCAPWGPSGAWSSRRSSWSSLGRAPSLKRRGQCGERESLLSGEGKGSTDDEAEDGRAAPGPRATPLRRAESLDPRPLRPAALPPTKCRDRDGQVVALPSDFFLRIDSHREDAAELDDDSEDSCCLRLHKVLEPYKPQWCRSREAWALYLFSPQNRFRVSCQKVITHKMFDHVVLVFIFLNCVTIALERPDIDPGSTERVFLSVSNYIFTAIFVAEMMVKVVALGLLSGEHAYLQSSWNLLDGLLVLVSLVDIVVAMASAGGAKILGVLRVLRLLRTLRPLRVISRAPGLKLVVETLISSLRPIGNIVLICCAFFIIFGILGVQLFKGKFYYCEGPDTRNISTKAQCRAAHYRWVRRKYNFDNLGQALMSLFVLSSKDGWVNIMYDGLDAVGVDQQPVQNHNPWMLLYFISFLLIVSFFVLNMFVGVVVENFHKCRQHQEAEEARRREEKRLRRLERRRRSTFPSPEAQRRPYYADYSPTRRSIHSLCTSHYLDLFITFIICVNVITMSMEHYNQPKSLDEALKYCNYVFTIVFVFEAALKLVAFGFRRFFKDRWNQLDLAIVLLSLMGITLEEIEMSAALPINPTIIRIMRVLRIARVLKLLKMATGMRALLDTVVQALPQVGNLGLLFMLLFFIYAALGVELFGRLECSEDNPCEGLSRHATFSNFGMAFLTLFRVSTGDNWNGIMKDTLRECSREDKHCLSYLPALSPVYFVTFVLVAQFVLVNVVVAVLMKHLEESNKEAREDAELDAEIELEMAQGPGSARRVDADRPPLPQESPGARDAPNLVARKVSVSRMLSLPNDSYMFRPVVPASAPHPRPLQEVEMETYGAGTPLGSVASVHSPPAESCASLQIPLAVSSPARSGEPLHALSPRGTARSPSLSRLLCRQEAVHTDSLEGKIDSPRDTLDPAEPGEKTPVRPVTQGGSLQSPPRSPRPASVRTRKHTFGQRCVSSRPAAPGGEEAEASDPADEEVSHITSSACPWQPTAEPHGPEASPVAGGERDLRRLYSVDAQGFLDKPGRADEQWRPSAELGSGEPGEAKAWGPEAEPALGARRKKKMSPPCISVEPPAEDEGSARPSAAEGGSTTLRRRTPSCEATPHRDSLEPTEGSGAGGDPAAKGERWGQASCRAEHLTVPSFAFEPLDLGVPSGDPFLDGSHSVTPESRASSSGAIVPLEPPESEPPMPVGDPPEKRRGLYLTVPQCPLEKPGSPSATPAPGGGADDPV
# T1 sequence (P11940 whole entry, the tested form may be a part): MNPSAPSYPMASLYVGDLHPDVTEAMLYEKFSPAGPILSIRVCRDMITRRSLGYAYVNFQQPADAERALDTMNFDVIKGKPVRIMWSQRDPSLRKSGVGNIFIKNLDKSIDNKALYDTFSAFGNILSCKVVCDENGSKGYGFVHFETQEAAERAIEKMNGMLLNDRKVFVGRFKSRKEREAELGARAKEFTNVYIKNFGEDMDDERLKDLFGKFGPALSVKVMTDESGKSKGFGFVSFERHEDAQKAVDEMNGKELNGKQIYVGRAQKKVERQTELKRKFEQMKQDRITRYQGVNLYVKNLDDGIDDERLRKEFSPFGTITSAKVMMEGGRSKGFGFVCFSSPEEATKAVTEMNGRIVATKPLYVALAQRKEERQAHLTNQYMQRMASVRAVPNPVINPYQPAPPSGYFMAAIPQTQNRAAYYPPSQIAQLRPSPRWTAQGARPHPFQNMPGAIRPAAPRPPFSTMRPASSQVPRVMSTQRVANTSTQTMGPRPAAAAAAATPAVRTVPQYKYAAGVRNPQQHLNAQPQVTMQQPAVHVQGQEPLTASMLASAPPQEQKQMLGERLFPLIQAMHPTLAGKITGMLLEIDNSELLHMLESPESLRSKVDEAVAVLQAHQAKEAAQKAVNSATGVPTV
# Chain of DNA dC->dU-editing enzyme APOBEC-3A (P31941 whole entry): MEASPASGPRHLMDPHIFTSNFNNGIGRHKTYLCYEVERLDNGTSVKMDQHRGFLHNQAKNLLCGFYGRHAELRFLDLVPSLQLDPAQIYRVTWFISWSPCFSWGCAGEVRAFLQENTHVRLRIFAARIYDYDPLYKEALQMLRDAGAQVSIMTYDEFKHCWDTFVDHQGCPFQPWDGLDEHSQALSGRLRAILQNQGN
# Chain of DNA dC->dU-editing enzyme APOBEC-3G (Q9HC16 whole entry): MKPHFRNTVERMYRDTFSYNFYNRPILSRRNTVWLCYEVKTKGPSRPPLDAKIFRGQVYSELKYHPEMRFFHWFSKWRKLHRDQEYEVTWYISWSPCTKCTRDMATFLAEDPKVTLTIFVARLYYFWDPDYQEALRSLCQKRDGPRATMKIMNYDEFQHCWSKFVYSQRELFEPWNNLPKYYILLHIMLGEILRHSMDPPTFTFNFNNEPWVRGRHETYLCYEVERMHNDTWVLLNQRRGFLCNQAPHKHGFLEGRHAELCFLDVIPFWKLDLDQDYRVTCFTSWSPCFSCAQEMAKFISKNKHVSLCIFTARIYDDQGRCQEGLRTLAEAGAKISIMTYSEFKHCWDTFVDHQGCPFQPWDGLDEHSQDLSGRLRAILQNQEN
smiles,measurement,setting,value
Cc1cccc(NC(=O)CSc2nc3ccccc3o2)c1,EC50,[1],4.44 µM (active)
CCC1CCCCN1C(=S)NC(=O)c1cccc([N+](=O)[O-])c1 (centres undefined),IC50,[2],> 66 µM (inactive)
same,IC50,[3],> 66 µM (inactive)
CCNS(=O)(=O)c1ccc(CCC(=O)NCc2ccccc2)cc1,IC50,Aminopeptidase N,60.1 µM (active)
COc1ccc(OCCNc2cc(Cl)ccc2[N+](=O)[O-])cc1,EC50,[4],> 99 µM (inactive)
same,EC50,[5],> 99 µM (inactive)
O=C(CSc1ccc([N+](=O)[O-])cn1)Nc1ccc2c(c1)OCO2,IC50,Fatty acid synthase [6],0.981 µM (active)
same,IC50,Fatty acid synthase [7],0.951 µM (active)
NC(Cc1ccc([N+](=O)[O-])cc1)=NOC(=O)c1ccc2ccccc2c1,IC50,Estrogen receptor,> 50 µM (not active)
same,CC50,[8],33 µM (active)
O=S(=O)(c1cccc(-c2nnc(S)n2Cc2ccccc2)c1)N1CCOCC1,IC50,[9],4.28 µM (active)
same,IC50,[10],> 100 µM (inactive)
COc1ccccc1OCC(=O)Sc1ccc(C)cc1,IC50,[2],> 66 µM (inactive)
same,IC50,[3],> 66 µM (inactive)
COc1ccc(C2NC(=O)c3sc(=S)n(-c4ccccc4)c3N2)cc1 (centres undefined),EC50,[1],1.23 µM (active)
same,EC50,[11],22.6 µM (active)
same,EC50,[12],21.6 µM (active)
COc1cc(CNc2nc[nH]n2)cc(Br)c1OC,IC50,Leucine aminopeptidase,8.2 µM (active)
CC(=O)Nc1ccc2nc(-c3ccccn3)[nH]c2c1,IC50,Aminopeptidase N,94 µM (active)
O=C(NNC(=S)NCCc1ccccc1)c1ccc(Br)s1,IC50,Aminopeptidase N,9.19 µM (active)
O=[N+]([O-])c1cc(S(=O)(=O)Nc2cccc(C(F)(F)F)c2)ccc1-n1nnc2ccccc21,IC50,Fatty acid synthase [6],7.12 µM (active)
same,EC50,[1],3.52 µM (active)
same,IC50,Fatty acid synthase [7],4.72 µM (active)
O=[N+]([O-])c1ccc(S(=O)(=O)Nc2ccc(-c3ccccc3)cc2)cc1,IC50,Fatty acid synthase [6],5.95 µM (active)
same,IC50,Fatty acid synthase [7],6.47 µM (active)
C/C(=N\NC(=S)NCCc1ccccc1)c1cccc(Br)c1,IC50,[2],> 66 µM (inactive)
same,IC50,[3],> 66 µM (inactive)
O=[N+]([O-])c1ccccc1/C=N/n1c(S)nnc1-c1cccnc1,IC50,[9],3.08 µM (active)
same,IC50,[10],> 100 µM (inactive)
